Assays:
[1] = molecular target: T1, ZAP-70 (Homo sapiens, UniProt P43403); assay: ZAP-70 kinobeads assay; type: binding; settings: cell lysate
T1 construct: endogenous in cells; host or cells: cell lysate
T1 sequence (P43403 1-619): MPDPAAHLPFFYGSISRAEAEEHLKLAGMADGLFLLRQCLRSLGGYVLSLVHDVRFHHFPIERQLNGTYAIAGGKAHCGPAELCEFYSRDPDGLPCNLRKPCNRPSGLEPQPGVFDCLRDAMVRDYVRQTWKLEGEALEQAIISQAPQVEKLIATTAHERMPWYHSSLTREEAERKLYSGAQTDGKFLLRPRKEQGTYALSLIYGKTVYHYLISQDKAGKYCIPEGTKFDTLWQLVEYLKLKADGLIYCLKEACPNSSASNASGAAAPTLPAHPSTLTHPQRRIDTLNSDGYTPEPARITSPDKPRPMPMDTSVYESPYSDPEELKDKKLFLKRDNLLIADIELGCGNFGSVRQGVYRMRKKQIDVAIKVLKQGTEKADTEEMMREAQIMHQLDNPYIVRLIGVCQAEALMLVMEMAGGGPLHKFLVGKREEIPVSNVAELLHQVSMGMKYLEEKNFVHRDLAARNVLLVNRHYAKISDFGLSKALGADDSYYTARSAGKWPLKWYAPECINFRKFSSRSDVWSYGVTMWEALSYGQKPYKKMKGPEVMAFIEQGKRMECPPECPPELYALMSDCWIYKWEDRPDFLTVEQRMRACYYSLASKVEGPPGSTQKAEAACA
In short: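 Competition binding: compounds at various concentrations incubated with cell lysate plus affinity matrix bearing immobilized aminopyrido-pyrimidine ligand 24. ZAP-70 retained on beads eluted and quantified by specific-antibody dot blot with infrared detection.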

[2] = system: Calcium Ion Release in Cells; assay: calcium release assay (measurement of calcium ion release in cells); type: cell-based; settings: calcium release assay as described in WO-A 2009/080638

Row | SMILES | IC50 [1] [nM] | IC50 [2] [nM]
1 | COc1ccc(Nc2nc(Nc3ccncc3F)ncc2Cl)c(NS(C)(=O)=O)c1 [Example 72, N-(2-(5-chloro-2-(3-fluoropyridin-4-ylamino)pyrimidin-4-ylamino)-5-methoxyphenyl)methanesulfonamide] | 100 to 1000 | ≤ 1000
2 | COc1ccc(Nc2nc(Nc3ccc(OCCO)cc3C)ncc2Cl)c(NS(C)(=O)=O)c1 [Example 73, N-(2-(5-chloro-2-(4-(2-hydroxyethoxy)-2-methylphenylamino)pyrimidin-4-ylamino)-5-methoxyphenyl)methanesulfonamide] | ≤ 100 | ≤ 1000
3 | COc1ccc(Nc2nc(Nc3ccncc3OC)ncc2Cl)c(NS(C)(=O)=O)c1 [Example 76, N-(2-(5-chloro-2-(3-methoxypyridin-4-ylamino)pyrimidin-4-ylamino)-5-methoxyphenyl)methanesulfonamide] | 100 to 1000 | ≤ 1000
4 | COc1ccc(Nc2nc(Nc3ccnc(C)c3C)ncc2Cl)c(NS(C)(=O)=O)c1 [Example 80, N-(2-(5-chloro-2-(2,3-dimethylpyridin-4-ylamino)pyrimidin-4-ylamino)-5-methoxyphenyl)methanesulfonamide] | 100 to 1000 | ≤ 1000
5 | COc1ccc(Nc2nc(Nc3cnc(OCCO)cc3C)ncc2Cl)c(NS(C)(=O)=O)c1 [Example 85, N-(2-(5-chloro-2-(6-(2-hydroxyethoxy)-4-methylpyridin-3-ylamino)pyrimidin-4-ylamino)-5-methoxyphenyl)methanesulfonamide] | 100 to 1000 | ≤ 1000
6 | COc1ccc(Nc2nc(Nc3cc(OCCO)ccc3C)ncc2Cl)c(NS(C)(=O)=O)c1 [Example 88, N-(2-(5-chloro-2-(5-(2-hydroxyethoxy)-2-methylphenylamino)pyrimidin-4-ylamino)-5-methoxyphenyl)methanesulfonamide] | ≤ 100 | ≤ 1000
7 | COc1ccc(Nc2nc(Nc3ccc(OCC(N)=O)cc3OC)ncc2Cl)c(NS(C)(=O)=O)c1 [Example 89, 2-(4-((5-chloro-4-((4-methoxy-2-(methylsulfonamido)phenyl)amino)pyrimidin-2-yl)amino)-3-methoxyphenoxy)acetamide] | ≤ 100 | ≤ 1000
8 | COc1ccc(Nc2nc(Nc3cccc(OCC(C)O)c3C)ncc2Cl)c(NS(C)(=O)=O)c1 (centres unmarked) [Example 93, N-(2-((5-chloro-2-((3-(2-hydroxypropoxy)-2-methylphenyl)amino)pyrimidin-4-yl)amino)-5-methoxyphenyl)methanesulfonamide] | 100 to 1000 | ≤ 1000
9 | COc1ccc(Nc2nc(Nc3cccc(OCC(C)(C)O)c3C)ncc2Cl)c(NS(C)(=O)=O)c1 [Example 95, N-(2-((5-chloro-2-((3-(2-hydroxy-2-methylpropoxy)-2-methylphenyl)amino)pyrimidin-4-yl)amino)-5-methoxyphenyl)methanesulfonamide] | ≤ 100 | ≤ 1000
10 | COc1ccc(Nc2nc(Nc3cccc(CCCO)c3C)ncc2Cl)c(NS(C)(=O)=O)c1 [Example 97, N-(2-((5-chloro-2-((3-(3-hydroxypropyl)-2-methylphenyl)amino)pyrimidin-4-yl)amino)-5-methoxyphenyl)methanesulfonamide] | ≤ 100 | ≤ 1000
11 | COc1ccc(Nc2nc(Nc3cc(OCCO)ccc3OC)ncc2F)c(NS(C)(=O)=O)c1 [Example 106, N-(2-(5-fluoro-2-(5-(2-hydroxyethoxy)-2-methoxyphenylamino)pyrimidin-4-ylamino)-5-methoxyphenyl)methanesulfonamide] | 100 to 1000 | ≤ 1000
12 | COc1ccc(Nc2nc(Nc3cc(OC)c(CC(N)=O)cc3OC)ncc2Cl)c(NS(C)(=O)=O)c1 [Example 107, 2-(4-((5-chloro-4-((4-methoxy-2-(methylsulfonamido)phenyl)amino)pyrimidin-2-yl)amino)-2,5-dimethoxyphenyl)acetamide] | 100 to 1000 | ≤ 1000
13 | COc1ccc(Nc2nc(Nc3cc(OCC(N)=O)ccc3OC)ncc2Cl)c(NS(C)(=O)=O)c1 [Example 108, 2-(3-((5-chloro-4-((4-methoxy-2-(methylsulfonamido)phenyl)amino)pyrimidin-2-yl)amino)-4-methoxyphenoxy)acetamide] | ≤ 100 | ≤ 1000
14 | COc1ccc(Nc2nc(Nc3cc(OC)c(OCCO)cc3OC)ncc2Cl)c(NS(C)(=O)=O)c1 [Example 110, N-(2-((5-chloro-2-((4-(2-hydroxyethoxy)-2,5-dimethoxyphenyl)amino)pyrimidin-4-yl)amino)-5-methoxyphenyl)methanesulfonamide] | ≤ 100 | ≤ 1000
15 | COc1ccc(Nc2nc(Nc3cc(OCCO)ccc3Cl)ncc2Cl)c(NS(C)(=O)=O)c1 [Example 111, N-(2-((5-chloro-2-((2-chloro-5-(2-hydroxyethoxy)phenyl)amino)pyrimidin-4-yl)amino)-5-methoxyphenyl)methanesulfonamide] | 100 to 1000 | ≤ 1000
16 | COc1ccc(Nc2nc(Nc3cc(CCCO)ccc3OC)ncc2Cl)c(NS(C)(=O)=O)c1 [Example 112, N-(2-(5-chloro-2-(5-(3-hydroxypropyl)-2-methoxyphenylamino)pyrimidin-4-ylamino)-5-methoxyphenyl)methanesulfonamide] | 100 to 1000 | ≤ 1000

Other lines, results leading:

Row | IC50 [1] [nM] | IC50 [2] [nM] | SMILES
17 | ≤ 100 | ≤ 1000 | COc1ccc(Nc2nc(Nc3ccc(OCCN)cc3F)ncc2Cl)c(NS(C)(=O)=O)c1 [Example 69, N-(2-(2-(4-(2-aminoethoxy)-2-fluorophenylamino)-5-chloropyrimidin-4-ylamino)-5-methoxyphenyl)methanesulfonamide]
18 | ≤ 100 | ≤ 1000 | COc1ccc(Nc2nc(Nc3ccncc3C)ncc2Cl)c(NS(C)(=O)=O)c1 [Example 70, N-(2-(5-chloro-2-(3-methylpyridin-4-ylamino)pyrimidin-4-ylamino)-5-methoxyphenyl)methanesulfonamide]
19 | ≤ 100 | ≤ 1000 | COc1ccc(Nc2nc(Nc3cnc(C)cc3C)ncc2Cl)c(NS(C)(=O)=O)c1 [Example 71, N-(2-(5-chloro-2-(4,6-dimethylpyridin-3-ylamino)pyrimidin-4-ylamino)-5-methoxyphenyl)methanesulfonamide]
20 | 100 to 1000 | ≤ 1000 | COc1ccc(Nc2nc(Nc3cnc(OC)cc3C)ncc2Cl)c(NS(C)(=O)=O)c1 [Example 74, N-(2-(5-chloro-2-(6-methoxy-4-methylpyridin-3-ylamino)pyrimidin-4-ylamino)-5-methoxyphenyl)methanesulfonamide]
21 | ≤ 100 | ≤ 1000 | COc1ccc(Nc2nc(Nc3ccc(C)nc3C)ncc2Cl)c(NS(C)(=O)=O)c1 [Example 75, N-(2-(5-chloro-2-(2,6-dimethylpyridin-3-ylamino)pyrimidin-4-ylamino)-5-methoxyphenyl)methanesulfonamide]
22 | 100 to 1000 | ≤ 1000 | COc1ccc(Nc2nc(Nc3cccnc3C)ncc2Cl)c(NS(C)(=O)=O)c1 [Example 77, N-(2-(5-chloro-2-(2-methylpyridin-3-ylamino)pyrimidin-4-ylamino)-5-methoxyphenyl)methanesulfonamide]
23 | 100 to 1000 | ≤ 1000 | COc1ccc(Nc2nc(Nc3cccnc3OC)ncc2Cl)c(NS(C)(=O)=O)c1 [Example 79, N-(2-(5-chloro-2-(2-methoxypyridin-3-ylamino)pyrimidin-4-ylamino)-5-methoxyphenyl)methanesulfonamide]
24 | ≤ 100 | ≤ 1000 | COc1ccc(Nc2nc(Nc3cnc(OCCO)cc3OC)ncc2Cl)c(NS(C)(=O)=O)c1 [Example 83, N-(2-(5-chloro-2-(6-(2-hydroxyethoxy)-4-methoxypyridin-3-ylamino)pyrimidin-4-ylamino)-5-methoxyphenyl)methanesulfonamide]
25 | 100 to 1000 | ≤ 1000 | COc1ccc(Nc2nc(Nc3cc(OCCCO)ccc3C)ncc2Cl)c(NS(C)(=O)=O)c1 [Example 87, N-(2-(5-chloro-2-(5-(3-hydroxypropoxy)-2-methylphenylamino)pyrimidin-4-ylamino)-5-methoxyphenyl)methanesulfonamide]
26 | 100 to 1000 | ≤ 1000 | COc1ccc(Nc2nc(Nc3cccc(OCCF)c3C)ncc2Cl)c(NS(C)(=O)=O)c1 [Example 92, N-(2-(5-chloro-2-(3-(2-fluoroethoxy)-2-methylphenylamino)pyrimidin-4-ylamino)-5-methoxyphenyl)methanesulfonamide]
27 | 100 to 1000 | ≤ 1000 | COc1ccc(Nc2nc(Nc3cccc(OCCCO)c3C)ncc2Cl)c(NS(C)(=O)=O)c1 [Example 94, N-(2-((5-chloro-2-((3-(3-hydroxypropoxy)-2-methylphenyl)amino)pyrimidin-4-yl)amino)-5-methoxyphenyl)methanesulfonamide]
28 | 100 to 1000 | ≤ 1000 | COc1ccc(Nc2nc(Nc3cc(OC)c(CCO)cc3OC)ncc2Cl)c(NS(C)(=O)=O)c1 [Example 105, N-(2-((5-chloro-2-((4-(2-hydroxyethyl)-2,5-dimethoxyphenyl)amino)pyrimidin-4-yl)amino)-5-methoxyphenyl)methanesulfonamide]

Reference: patent US20120142667A1, “PYRIMIDINE DERIVATIVES AS ZAP-70 INHIBITORS” (priority 2009, published 2012)
